# Target: T1, BRD4-BD2 (Homo sapiens, UniProt O60885)
# T1 construct: made in house; host or cells: T7 phage grown in an E. coli host derived from BL21
# Experiment: bromoKdELECT assay for binding affinity to BRD4-BD2
# Conditions: Table 7
# Experimental: Compounds were tested using a bromoKdELECT assay. T7 phage strains displaying bromodomains were grown in parallel in 24-well blocks in an E. coli host derived from the BL21 strain. E. coli were grown to log-phase and infected with T7 phage from a frozen stock (multiplicity of infection=0.4) and incubated with shaking at 32° C. until lysis (90-150 minutes). The lysates were centrifuged (5,000×g) and filtered (0.2 μm) to remove cell debris. Streptavidin-coated magnetic beads were treated with biotinylated small molecule or acetylated peptide ligands for 30 minutes at room temperature to generate affinity resins for bromodomain assays. The liganded beads were blocked with excess biotin and washed with blocking buffer (SeaBlock (Pierce), 1% BSA, 0.05% Tween 20, 1 mM DTT) to remove unbound ligand and to reduce nonspecific phage binding. Binding reactions were assembled by combining bromodomains, liganded affinity beads, and test compounds in 1× binding buffer (17% SeaBlock, 0.33×PBS, 0.04% Tween 20, 0.02% BSA, 0.004% Sodium azide, 7.4 mM DTT). Test compounds were prepared as 1000× stocks in 100% DMSO. Kds were determined using an 11-point 3-fold compound dilution series with one DMSO control point. All compounds for Kd measurements are distributed by acoustic transfer (non-contact dispensing) in 100% DMSO. The compounds were then diluted directly into the assays such that the final concentration of DMSO was 0.09%. All reactions performed in polypropylene 384-well plates. Each was a final volume of 0.02 ml. The assay plates were incubated at room temperature with shaking for 1 hour and the affinity beads were washed with wash buffer (1×PBS, 0.05% Tween 20). The beads were then resuspended in elution buffer (1×PBS, 0.05% Tween 20, 2 μM non-biotinylated affinity ligand) and incubated at room temperature with shaking for 30 minutes. The bromodomain concentration in the eluates was measured by qPCR.
row,SMILES,Kd
1,CCNC(=O)C[C@@H]1N=C(c2ccc(N(C)CC3CN(c4ncc(C(=O)N[C@H]5C(C)(C)[C@H](Oc6ccc(C#N)c(Cl)c6)C5(C)C)cn4)C3)cc2)c2c(sc(C)c2C)-n2c(C)nnc21 [Compound I-107],50 to 500 nM
2,CCN(C)C(=O)C[C@@H]1N=C(c2ccc(CCCOC3CCN(c4ncc(C(=O)N[C@H]5C(C)(C)[C@H](Oc6ccc(C#N)c(Cl)c6)C5(C)C)cn4)CC3)cc2)c2c(sc(C)c2C)-n2c(C)nnc21 [Compound I-101],> 2500 nM
3,CCNC(=O)C[C@@H]1N=C(c2ccc(N(C)C3CN(CC4CCN(c5ncc(C(=O)N[C@H]6C(C)(C)[C@H](Oc7ccc(C#N)c(Cl)c7)C6(C)C)cn5)CC4)C3)cc2)c2c(sc(C)c2C)-n2c(C)nnc21 [Compound I-119],50 to 500 nM
4,Cc1sc2c(c1C)C(c1ccc(CCCOC3CCN(c4ncc(C(=O)N[C@H]5C(C)(C)[C@H](Oc6ccc(C#N)c(Cl)c6)C5(C)C)cn4)CC3)cc1)=N[C@@H](CC(=O)NC(C)C)c1nnc(C)n1-2 [Compound I-100],500 to 2500 nM
5,"CCNC(=O)C[C@@H]1N=C(c2ccc(OCCOC3CCN(c4ncc(C(=O)N[C@H]5C(C)(C)[C@H](Oc6ccc(C#N)c(Cl)c6)C5(C)C)cn4)CC3)cc2)c2c(sc(C)c2C)-n2c(C)nnc21 [Compound I-60, N-((1r,3r)-3-(3-chloro-4-cyanophenoxy)-2,2,4,4-tetramethylcyclobutyl)-2-(4-(2-(4-((S)-6-(2-(ethylamino)-2-oxoethyl)-2,3,9-trimethyl-6H-thieno[3,2-f][1,2,4]triazolo[4,3-a][1,4]diazepin-4-yl)phenoxy)ethoxy)piperidin-1-yl)pyrimidine-5-carboxamide]",50 to 500 nM
6,"Cc1sc2c(c1C)C(c1ccc(CCCOC3CCN(c4ncc(C(=O)N[C@H]5C(C)(C)[C@H](Oc6ccc(C#N)c(Cl)c6)C5(C)C)cn4)CC3)cc1)=N[C@@H](Cc1ncco1)c1nnc(C)n1-2 [Compound I-131, N-[3-(3-chloro-4-cyano-phenoxy)-2,2,4,4-tetramethyl-cyclobutyl]-2-[4-[3-[4-[(9S)-4,5,13-trimethyl-9-(oxazol-2-ylmethyl)-3-thia-1,8,11,12-tetrazatricyclo[8.3.0.02,6]trideca-2(6),4,7,10,12-pentaen-7-yl]phenyl]propoxy]-1-piperidyl]pyrimidine-5-carboxamide]",> 2500 nM
7,CCNC(=O)C[C@@H]1N=C(c2ccc(OCCOC3CCN(c4ncc(C(=O)N[C@H]5C(C)(C)[C@H](Oc6ccc(C#N)c(Cl)c6)C5(C)C)cn4)CC3)c(F)c2)c2c(sc(C)c2C)-n2c(C)nnc21 [Compound I-76],50 to 500 nM
8,CCNC(=O)C[C@@H]1N=C(c2ccc(N3CCC(N(C)C4CCN(c5ncc(C(=O)N[C@H]6C(C)(C)[C@H](Oc7ccc(C#N)c(Cl)c7)C6(C)C)cn5)CC4)CC3)cc2)c2c(sc(C)c2C)-n2c(C)nnc21 [Compound I-113],50 to 500 nM
9,"Cc1sc2c(c1C)C(c1ccc(CCCOC3CCN(c4ncc(C(=O)N[C@H]5C(C)(C)[C@H](Oc6ccc(C#N)c(Cl)c6)C5(C)C)cn4)CC3)cc1)=N[C@@H](C)c1nnc(C)n1-2 [Compound I-228, N-[3-(3-chloro-4-cyano-phenoxy)-2,2,4,4-tetramethyl-cyclobutyl]-2-[4-[3-[4-[(9S)-4,5,9,13-tetramethyl-3-thia-1,8,11,12-tetrazatricyclo [8.3.0.02,6]trideca-2(6),4,7,10,12-pentaen-7-yl]phenyl]propoxy]-1-piperidyl]pyrimidine-5-carboxamide]",> 2500 nM
10,"COCC[C@@H]1N=C(c2ccc(CCCOC3CCN(c4ncc(C(=O)N[C@H]5C(C)(C)[C@H](Oc6ccc(C#N)c(Cl)c6)C5(C)C)cn4)CC3)cc2)c2c(sc(C)c2C)-n2c(C)nnc21 [Compound I-227, N-[3-(3-chloro-4-cyano-phenoxy)-2,2,4,4-tetramethyl-cyclobutyl]-2-[4-[3-[4-[(9S)-9-(2-methoxyethyl)-4,5,13-trimethyl-3-thia-1,8,11,12-tetrazatricyclo[8.3.0.02,6]trideca-2(6),4,7,10,12-pentaen-7-yl]phenyl]propoxy]-1-piperidyl]pyrimidine-5-carboxamide]",> 2500 nM
11,CCNC(=O)C[C@@H]1N=C(c2ccc(CCCC3CCN(c4ncc(C(=O)N[C@H]5C(C)(C)[C@H](Oc6ccc(C#N)c(Cl)c6)C5(C)C)cn4)CC3)cc2)c2c(sc(C)c2C)-n2c(C)nnc21 [Compound I-95],> 2500 nM
12,Cc1sc2c(c1C)C(c1ccc(Cl)cc1)=N[C@@H](CC(=O)NCCOCCOCCOC1CCN(c3ncc(C(=O)N[C@H]4C(C)(C)[C@H](Oc5ccc(C#N)c(Cl)c5)C4(C)C)cn3)CC1)c1nnc(C)n1-2 [Compound I-7],< 50 nM
13,CCNC(=O)C[C@@H]1N=C(c2ccc(OCCOC3CCN(c4ncc(C(=O)N[C@H]5C(C)(C)[C@H](Oc6ccc(C#N)c(Cl)c6)C5(C)C)cn4)CC3)c(F)c2F)c2c(sc(C)c2C)-n2c(C)nnc21 [Compound I-73],50 to 500 nM
14,CCN(C)C(=O)C[C@@H]1N=C(c2ccc(OCCOC3CCN(c4ncc(C(=O)N[C@H]5C(C)(C)[C@H](Oc6ccc(C#N)c(Cl)c6)C5(C)C)cn4)CC3)cc2)c2c(sc(C)c2C)-n2c(C)nnc21 [Compound I-66],500 to 2500 nM
15,CCNC(=O)C[C@@H]1N=C(c2ccc(OCCOC3CCN(c4ncc(C(=O)N[C@H]5C(C)(C)[C@H](Oc6ccc(C#N)c(Cl)c6)C5(C)C)cn4)CC3)cc2F)c2c(sc(C)c2C)-n2c(C)nnc21 [Compound I-75],50 to 500 nM
16,Cc1sc2c(c1C)C(c1ccc(CCCOC3CCN(c4ncc(C(=O)N[C@H]5C(C)(C)[C@H](Oc6ccc(C#N)c(Cl)c6)C5(C)C)cn4)CC3)cc1)=N[C@@H](CC(=O)NC1CC1)c1nnc(C)n1-2 [Compound I-102],50 to 500 nM
17,CCNC(=O)C[C@@H]1N=C(c2ccc(N(C)CCN3CCN(c4ncc(C(=O)N[C@H]5C(C)(C)[C@H](Oc6ccc(C#N)c(Cl)c6)C5(C)C)cn4)CC3)cc2)c2c(sc(C)c2C)-n2c(C)nnc21 [Compound I-108],500 to 2500 nM

# Target: T2, progesterone receptor (Homo sapiens, UniProt P06401)
# T2 construct: host or cells: T47D cells (cytosolic fraction)
# T2 sequence (P06401 1-933): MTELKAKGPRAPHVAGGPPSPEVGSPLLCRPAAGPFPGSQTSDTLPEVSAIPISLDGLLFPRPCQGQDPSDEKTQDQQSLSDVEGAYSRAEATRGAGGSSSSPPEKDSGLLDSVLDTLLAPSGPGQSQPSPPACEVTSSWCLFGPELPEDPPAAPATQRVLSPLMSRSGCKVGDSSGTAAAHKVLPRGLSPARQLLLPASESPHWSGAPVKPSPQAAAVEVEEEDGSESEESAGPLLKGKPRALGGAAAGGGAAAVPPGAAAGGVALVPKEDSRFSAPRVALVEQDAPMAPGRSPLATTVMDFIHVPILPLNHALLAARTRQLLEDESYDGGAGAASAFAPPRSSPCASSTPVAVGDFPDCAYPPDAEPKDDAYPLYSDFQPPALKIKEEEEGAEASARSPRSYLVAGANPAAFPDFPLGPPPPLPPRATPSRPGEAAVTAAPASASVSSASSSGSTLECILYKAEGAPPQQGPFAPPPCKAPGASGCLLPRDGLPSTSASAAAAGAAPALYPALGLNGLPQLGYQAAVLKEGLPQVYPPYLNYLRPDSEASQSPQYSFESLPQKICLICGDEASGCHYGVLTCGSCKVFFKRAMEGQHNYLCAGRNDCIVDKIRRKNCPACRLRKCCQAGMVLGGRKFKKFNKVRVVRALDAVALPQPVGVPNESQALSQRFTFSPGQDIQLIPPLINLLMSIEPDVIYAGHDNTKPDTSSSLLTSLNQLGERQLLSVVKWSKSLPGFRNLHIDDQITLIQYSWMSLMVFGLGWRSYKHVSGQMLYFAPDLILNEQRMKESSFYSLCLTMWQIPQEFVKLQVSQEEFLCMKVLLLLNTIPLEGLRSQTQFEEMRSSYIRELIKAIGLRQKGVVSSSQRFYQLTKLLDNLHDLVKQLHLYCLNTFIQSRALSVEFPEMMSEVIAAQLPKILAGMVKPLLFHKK
# Experiment: PR Human Progesterone NHR Binding (Agonist Radioligand) Assay, T47D cytosol
# Conditions: T47D cytosolic fractions, 0.5 nM [3H]progesterone, 1 hour at 4° C., Table 16
# Experimental: Compounds were tested using the PR Human Progesterone NHR Binding (Agonist Radioligand) Assay, Cerep at Eurofins Discovery using a modified version of the protocol from Sarup et al. (Cancer Res 1988; 48:5071-5078). Briefly, cytosolic fractions of T47D cells were incubated with 0.5 nM [^3H]progesterone for 1 hour at 4° C. in the absence or presence of the test compound. Nonspecific binding was determined in the presence of 1 μM promegestone. Reactions were subjected to scintillation counting. Results are expressed as a percent inhibition of the control radioligand specific binding.
row,SMILES,Ki
1,Cc1sc2c(c1C)C(c1ccc(CC3CC4(CCN(c5ncc(C(=O)N[C@H]6C(C)(C)[C@H](Oc7ccc(C#N)c(Cl)c7)C6(C)C)cn5)CC4)C3)cc1)=N[C@@H](C)c1nnc(C)n1-2 [Compound I-436],50 to 500 nM
2,Cc1sc2c(c1C)C(c1ccc(CC3CC4(CCN(c5ncc(C(=O)N[C@H]6C(C)(C)[C@H](Oc7ccc(C#N)c(Cl)c7)C6(C)C)cn5)CC4)C3)cc1)=N[C@@H](C)c1nnc(C)n1-2 [Compound I-303],< 50 nM
3,Cc1sc2c(c1C)C(c1ccc(OC3CC4(C3)CC3(CCN(c5ncc(C(=O)N[C@H]6C(C)(C)[C@H](Oc7ccc(C#N)c(Cl)c7)C6(C)C)cn5)CC3)C4)cc1)=N[C@@H](Cc1ncco1)c1nnc(C)n1-2 [Compound I-283],< 50 nM
4,Cc1sc2c(c1C)C(c1ccc(N3CC(C4CCN(c5ncc(C(=O)N[C@H]6C(C)(C)[C@H](Oc7ccc(C#N)c(Cl)c7)C6(C)C)cn5)CC4)C3)cc1)=N[C@@H](C)c1nnc(C)n1-2 [Compound I-271],< 50 nM
5,Cc1sc2c(c1C)C(c1ccc(N3CC(CC4CCN(c5ncc(C(=O)N[C@H]6C(C)(C)[C@H](Oc7ccc(C#N)c(Cl)c7)C6(C)C)cn5)CC4)C3)cc1)=N[C@@H](C)c1nnc(C)n1-2 [Compound I-270],< 50 nM
